The subject of data set [1] is adult osteoarthritic rats. Kind of data set: MIA-OA osteoarthritis pain model, hind limb grip force. The data set is classed as in vivo, Male Sprague Dawley rats. The following applies: Rattus norvegicus, 480 h, read-out: % Effect; for inhibition in vivo at 1 mg/kg: 1 mg/kg i.p.; for inhibition in vivo at 3 mg/kg: 3 mg/kg i.p. How it is done: This model, the MIA-OA model is well known to those skilled in the art. A general review of various models of pain is found in Joshi and Honore, Expert Opinion in Drug Discovery (2004) 1, pp. 323-334, and in the book ‘Drug Discovery and Evaluation, 2nd edition’ (H. Gerhard Vogel, editor; Springer-Verlag, New York, 2002; pp. 702-706).
Pain behavior was assessed by measurement of hind limb grip force (GF) in adult osteoarthritic rats. Male Sprague Dawley rats, 325-350 g, were injected in the unilateral knee join with a single intra-articular injection of sodium monoiodoacetate (MIA). All rats were tested at 20 days following MIA injection. A behavioral measure of activity-induced pain was carried out. Measurements of the peak hind limb grip force were conducted by recording the maximum compressive force (CFmax), in grams of force, exerted on a hind limb strain gauge setup, in a commercially available grip force measurement system (Columbus Instruments, Columbus, Ohio).
During testing, each rat was gently restrained by grasping it around its rib cage and then allowed to grasp the wire mesh frame attached to the strain gauge. The experimenter then moved the animal in a rostral-to-caudal direction until the grip was broken. Each rat was sequentially tested twice at approximately 2-3 min interval to obtain a raw mean grip force (CFmax). This raw mean grip force data was in turn converted to a maximum hindlimb cumulative compressive force (CFmax), as the grams of force/kg of body weight, for each animal.
For evaluating the compound effects, the hind limb grip force was conducted 20 days following the intra-articular injection of MIA. A group of age-matched naïve (not injected with MIA) animals was added as a comparator to the drug-dosed groups. The vehicle control response for each group of MIA-treated animals was defined as the 0% response (0% effect), whereas the naïve control group was defined as the normal response and as 100% effect. The % effects for each dose group was expressed as % return of response to normalcy, compared to the naïve group. That is, the % effect=(Treatment CFmax−Vehicle CFmax)/Vehicle CFmax]×100). Higher % effect numbers indicate increased relief from the pain in the model, with 100% indicating a return to the level of response seen in normal (non-osteoarthritic) animals. All experiments evaluating drug effects in this model were conducted in a randomized blinded fashion.
Male Sprague Dawley rats (250-300 g body weight) obtained from Charles River Laboratories (Wilmington, Mass.) were used for all experiments, unless indicated otherwise. The animals were housed in Association for Assessment and Accreditation of Laboratory Animal Care (AAALAC) approved facilities at Abbott Laboratories in a temperature-regulated environment under a controlled 12-h light-dark cycle, with lights on at 6:00 a.m. Food and water were available ad libitum at all times except during testing. All testing was done following procedures outlined in protocols approved by Abbott Laboratories' Institutional Animal Care and Use Committee.

Where [2] appears, read: ip, hind limb grip force (CFmax) 20 days after intra-articular MIA, % return to normalcy vs naive, mean ± SEM.

SMILES strings stand for the structures.

With `CC(C)N1CCCN(C(=O)C2CCN(c3ccc(C(F)(F)F)nc3)CC2)CC1` [Example 7, (4-isopropyl-1,4-diazepan-1-yl)(1-(6-(trifluoromethyl)pyridin-3-yl)piperidin-4-yl)methanone, reference compound], in data set [1] (setting [2]), the inhibition in vivo at 1 mg/kg stood at 51 ± 8% and the inhibition in vivo at 3 mg/kg worked out at 66 ± 6%.
`C[C@H]1CCCN1C[C@H]1C[C@@H]1c1ccc(-n2ncccc2=O)cc1` [Example 8, 2-[4-((1S,2S)-2-{[(2S)-2-methylpyrrolidin-1-yl]methyl}cyclopropyl)phenyl]pyridazin-3(2H)-one]: in data set [1] (setting [2]), the inhibition in vivo at 1 mg/kg worked out at 47 ± 6% and the inhibition in vivo at 3 mg/kg came to 68 ± 4%. Besides, the inhibition in vivo at 10 mg/kg in data set [1] (ip, 10 mg/kg i.p., hind limb grip force (CFmax) 20 days after intra-articular MIA, % return to normalcy vs naive, mean ± SEM) was found to be 82 ± 5%.
Take `O=c1cccnn1-c1ccc2nc([C@H]3C[C@H](N4CCCCC4)C3)sc2c1` [Example 2, Trans-2-[2-(3-piperidin-1-ylcyclobutyl)-1,3-benzothiazol-6-yl]pyridazin-3(2H)-one]: the inhibition in vivo at 3 mg/kg in data set [1] (setting [2]) stood at 43 ± 13%.
In the case of `CNC(=O)c1cnc(Oc2ccc3c(c2)CCN(C2CCC2)CC3)cn1` [Example 6, (5-(3-cyclobutyl-2,3,4,5-tetrahydro-1H-benzo[d]azepin-7-yloxy)-N-methylpyrazine-2-carboxamide), reference compound], in data set [1] (setting [2]), the inhibition in vivo at 1 mg/kg stood at 65 ± 9% and the inhibition in vivo at 3 mg/kg came to 90 ± 17%.
Taken in the same sequence, the figures for `C[C@@H]1CCCN1CCc1cc2cc(-c3ccc(C#N)cc3)ccc2o1` [Example 4, (4-(2-(2-[2(R)-Methyl-1-pyrrolidinyl]ethyl)-1-benzofuran-5-yl)benzonitrile)] were 40 ± 4% and 56 ± 6%.
Taken in the same sequence, the figures for `CNC(=O)c1ccc(Oc2ccc3c(c2)CCN(C2CCC2)CC3)nc1` [Example 5, (6-(3-Cyclobutyl-2,3,4,5-tetrahydro-1H-benzo[d]azepin-7-yloxy)-N-methyl-nicotinamide), reference compound] were 54 ± 5% and 74 ± 4%.
Regarding `Cc1ccc(-c2cc(C(F)(F)F)nn2-c2ccc(S(N)(=O)=O)cc2)cc1` [celecoxib, reference compound], in data set [1] (30 mg/kg, positive control, hind limb grip force 20 days after MIA), the inhibition in vivo at 30 mg/kg worked out at 89%.
Consider `O=C1[C@@H](O)CCN1c1ccc2nc(C3CC(N4CCCCC4)C3)sc2c1` (stereo partly drawn) [Example 3, (S)-3-Hydroxy-1-[2-(3-piperidin-1-yl-cyclobutyl)-benzothiazol-6-yl]-pyrrolidin-2-one], for which, in data set [1] (setting [2]), the inhibition in vivo at 1 mg/kg was determined as 26 ± 2% and the inhibition in vivo at 3 mg/kg is 53 ± 5%.
One may read the melting point as the temperature, or range, at which the solid turns liquid. `O=c1cccnn1-c1ccc2nc([C@H]3C[C@@H](N4CCCCC4)C3)sc2c1` [Example 1, Cis-2-[2-(3-piperidin-1-ylcyclobutyl)-1,3-benzothiazol-6-yl]pyridazin-3(2H)-one] registered a melting point of 127 to 128 °C. Also, in data set [1] (setting [2]), the inhibition in vivo at 1 mg/kg was 51 ± 6% and the inhibition in vivo at 3 mg/kg came out at 79 ± 6%.
